Source: patent publication US20250263496A1, “Neutrophil-Activating Therapy for the Treatment of Cancer” (The Board of Trustees of the Leland Stanford Junior …, priority 2024, published 2025)

Columns and labels:
[1] = system: B16 cells; assay: Mouse in vitro cytotoxicity (EuTDA), B16 cells co-cultured with neutrophils; assay type: cell-based; conditions: neutrophils from treated tumors stimulated with neutrophil-activating therapy
Description: B16 tumors were treated by intratumoral injection of TNF+anti-CD40+anti-gp75 and harvested 12 hours post-treatment. Tumors were dissected away from any surrounding fat, minced, and digested in 5 mg/ml collagenase IV (Worthington) plus 0.1 mg/ml DNase I (Sigma) with continuous mixing by magnetic stir bars for 20 minutes at 37° C. in RPMI-1640 (Gibco) with 2% FBS. Following digestion, tissue was mashed through a […] cell strainer (Falcon) and washed. For some studies, bone marrow was harvested by grinding bones from tumor-naive untreated mice in a mortar and pestle and mashing through a […] strainer (Falcon). Neutrophils were isolated from tumor and bone marrow samples with the MojoSort Mouse Ly6G Selection Kit (BioLegend), according to the manufacturer's instructions, and used in the cytotoxicity assay.
Cytotoxicity assays were conducted using the EuTDA assay from the DELFIA TRF cytotoxicity kit (PerkinElmer) according to the manufacturer's instructions. Briefly, B16 cells were labeled for 10 minutes with BATDA, and 5×10^3 labeled cells were added per well to a 96 well V-bottom plate in RPMI-1640. Neutrophils were added at a ratio of 10:1 unless otherwise stated. All co-cultures were conducted in the presence of TNF (10 ng/ml), anti-CD40 (1 μg/ml), anti-gp75 (1 μg/ml), and 10% active mouse C57BL/6 complement serum (Innovative Research), except where indicated otherwise. Mouse C57BL/6 complement serum was heat-inactivated for 40 minutes at 57° C. where inactivation is specified. In some experiments, mouse IgG2a isotype control (1 μg/ml, isotype control for anti-gp75, clone C1.18.4, Bio X Cell), anti-mouse CD16/CD32 (10 μg/ml, clone 2.4G2, Bio X Cell), recombinant mouse C5a (50 nM, R&D Systems), anti-C5a (25 μg/ml, clone 295108, R&D Systems), rat IgG2a isotype control (25 μg/ml, isotype control for anti-C5a, clone 2A3, Bio X Cell), anti-C5AR1 (5 μg/ml, clone 20/70, BioLegend), rat IgG2b isotype control (5 μg/ml, isotype control for anti-C5AR1, clone LTF-2, Bio X Cell), SC57461A (10 μM, Cayman Chemical), CP-105696 (1 μM, Sigma), topiroxostat (10 μM, MedChem Express), or DMSO (vehicle for SC57461A, CP-105696, and topiroxostat) were added to the wells with the B16 and neutrophils. After 4 hours of co-culture at 37° C., supernatant was taken from the wells, Europium solution was added, and TDA released from lysed B16 cells was detected by […] on a Victor X4 fluorescence microplate reader (PerkinElmer). Percent maximal lysis was determined by calculating the specific release of TDA using the formula: (experimental release−spontaneous release)/(maximum release −spontaneous release), where spontaneous release was determined by wells containing no neutrophils and maximum release was determined by wells with lysis buffer added.
For trogocytosis studies investigating transfer of tumor-binding antibody, anti-gp75 labeled with AF647 (clone TA99, Novus Biologicals) was used in place of unlabeled anti-gp75. For studies investigating transfer of B16 cell membrane, DiD′ Solid (ThermoFisher Scientific) was reconstituted in DMSO at 10 mg/ml and diluted to a working solution of 5 μg/ml in serum-free DMEM. B16 cells were labeled in this solution for 20 minutes at 37° C. at 1×10^6 cells/ml. Labeled B16 was washed 3 times in warm media before being added to the co-culture wells with the neutrophils. Following co-culture, flow cytometry was used to identify DiD signal in neutrophils.

[2] = system: LTB4; assay: LTB4 ELISA of B16 tumors; assay type: in vivo, mouse; conditions: agent given prior to neutrophil-activating therapy
Description: LTB4 ELISA. Tumors were dissected away from surrounding fat 24 hours post-treatment and lysed in PBS using 3 mm zirconium beads (Benchmark Scientific) in the BeadBug Microtube Homogenizer (Benchmark Scientific) for 2 cycles of 45 seconds at 3000 rpm. Crude lysate was centrifuged for 15 minutes at 16000×g at 4° C. to obtain clarified lysate. Clarified lysate was deproteinized by ethanol precipitation by adding 4 volumes of 100% ethanol, incubating on ice for 5 minutes, and centrifuging for 10 minutes at 3000×g at 4° C. Deproteinized supernatant was transferred to a new tube, ethanol was removed by evaporation at room temperature, and samples were brought to the appropriate volume in ELISA assay buffer. LTB4 content was determined with the Leukotriene B4 ELISA kit (Cayman Chemical 520111) according to the manufacturer's instructions and read with a Victor X4 fluorescence microplate reader (PerkinElmer).
Ex vivo neutrophil LTB4 assay. B16 tumors were harvested from mice 12 hours after treatment with TNF+anti-CD40+anti-gp75 and digested with collagenase IV and DNase I as described above. […] Following the incubation, the supernatant was collected, centrifuged to remove cells and debris, and analyzed for LTB4 using the Leukotriene B4 ELISA kit (Cayman Chemical 520111) as described above.

N#Cc1cc(-c2n[nH]c(-c3ccncc3)n2)ccn1 [topiroxostat]
effect of agent on ex vivo killing of tumor cells by neutrophils [1]: inhibited ex vivo tumor cell killing
effect of agent on LTB4 production [2]: did not prevent
